Laboratory results from patent publication US20260335323A1, “CHIMERIC MOLECULE” (UCL Business Ltd, priority 2023, published 2026).

System: PANC-1 cells
Experiment: mCherry-EGFP-LC3 tandem reporter assay, autophagosomes/autolysosomes
Assay type: cell-based, human
Conditions: for autophagic flux: bafilomycin A1 co-treatment; for enhanced number of mCherry puncta: co-treatment with bafilomycin A1; for fold increase in number of mCherry puncta: mCherry puncta (autolysosomes); for fold increase in number of EGFP puncta: panc-1 cells
Procedure: FIG. 1. The structure of AUTAC-4 is shown in (A). (B) Representative images of SH-SY5Y cells stably expressing the mito-mKeima reporter treated with AUTAC4 for 18 h. Nuclei were stained with Hoechst 33342, healthy mitochondria are shown in green and mitochondria in lysosomes are shown in red. (C-E) Fold change in mitophagy index over time after treatment with increasing concentrations of AUTAC4 under treatment with DMSO (C), 3 mM CCCP (D) or 0.1/0.1 mM antimycin/oligomycin (E), also for 18 h. (F) Quantification of changes in mitochondrial membrane potential over time (DYm) by measuring the TMRM relative fluorescence intensity (RFI) treated with DMSO, 10 mM CCCP, 10 mM and 20 mM AUTAC4. Normalised to number of nuclei. (G) Representative western blot of SH-SY5Y cells treated with DMSO, 10 mM AUTAC4 or 10 mM AUTAC4+0.1/0.1 mM antimycin/oligomycin for 18 h and, probed for p62, b-actin and Tom20. Quantifications of western blot for changes in Tom20 and p62 levels shown in (H) and (I), respectively. (J) Representative images of PANC-1 cells stably expressing the mCherry-EGFP-LC3 tandem reporter. Nuclei stained with Hoechst 33342, autophagosomes are shown in the EGFP channel and autolysosomes in the mCherry channel. Fold change in the number of autophagosome (K) and autolysosome (L) puncta in AUTAC4 treated cells. All data shown are mean±SEM, n=3, *p<0.05, *** p<0.001. For mito-mKeima experiments, statistics were calculated by Two-way ANOVA with Tukey's multiple comparisons test. For western blots, TMRM and LC3 tandem reporter assay, statistics were calculated with one-way ANOVA with Tukey's multiple comparisons test.
FIG. 2. BL-918 is a potent ULK1 agonist and autophagy inducer (A) Representative images of PANC-1 cells stably expressing the mCherry-EGFP-LC3 tandem reporter treated with ULK1 agonists. Nuclei stained with Hoechst 33342, autophagosomes are shown in the EGFP channel and autolysosomes in the mCherry channel. Fold change in the number of autophagosomes (B) and autolysosomes (C) puncta in ULK1 agonist treated cells. (D) Western blot of PANC-1 cells treated with DMSO, bafilomycin and ULK1 agonists±bafilomycin; probed for p-ULK1 (S317), ULK1, p62, b-actin, LC3-I and LC3-II. Quantifications of western blot for changes in the ratio of p-ULK1 (S317):ULK1 (E), p62 (F) and LC31:LC3II (G). All data shown are mean±SEM, n=3, *p<0.05, ** p<0.01, one-way ANOVA with Dunnett's multiple comparisons test.
FIG. 4. ULKTACs retain ULK1 agonist activity and subsequent induction of autophagy (A) Western blot of PANC-1 cells treated with ULKTACs±bafilomycin, probed for p-ULK1 (S317), ULK1, p62, b-Actin, LC31 and LC3II. Quantifications of (A) for the pULK1:ULK1 ratio (B) LC3I:LC3II ratio (C) and changes in p62 (D). (E) Representative images of PANC-1 cells stably expressing the mCherry-EGFP-LC3 tandem reporter treated with ULKTACs w/or w/o bafilomycin. Nuclei stained with Hoechst 33342, autophagosomes are shown in the EGFP channel and autolysosomes in the mCherry channel. Fold change in the number of autophagosome (F) and autolysosome (G) puncta. Data shown are mean±SEM, *p<0.05, ** p<0.01, *** p<0.001, one-way ANOVA, Dunnett's multiple comparisons test.
PANC-1 and A549 cells were separately seeded at a medium density in 24-well plates and infected overnight with 500 μL of filtered viral supernatant containing polybrene at a final concentration of 8 μg/mL. Cells were selected at 48 h post-transfection with 1 μg/mL puromycin and expanded into 10 cm tissue-culture treated dishes. Puromycin treatment was withheld once control cells had died. Experiments were performed without puromycin present using pooled populations of transduced cells. A549 and PANC-1 stably expressing mCherry-EGFP-LC3 tandem reporter cells were imaged with the PerkinElmer Opera Phenix or Opera Phenix Plus High Content Imaging Systems and analysed using Columbus software (v2.9.1). […]

fold increase in number of mCherry puncta | fold increase in number of EGFP puncta | SMILES | autophagic flux | enhanced number of mCherry puncta | green fluorescent puncta / number of autophagosomes
1.3 fold | 1.5 fold | O=C(Nc1cc(C(F)(F)F)cc(C(F)(F)F)c1)N[C@@H](C(=O)Nc1ccc(F)cc1F)c1ccc(OCc2cn(CCOCCOCCNC(=O)C(=O)c3c(-c4ccccc4)[nH]c4ccccc34)nn2)cc1 [NZ-65, (R)-2-(3-(3,5-bis(trifluoromethyl)phenyl)ureido)-N-(2,4-difluorophenyl)-2-(4-((1-(2-(2-(2-(2-oxo-2-(2-phenyl-1H-indol-3-yl)acetamido)ethoxy)ethoxy)ethyl)-1H-1,2,3-triazol-4-yl)methoxy)phenyl) acetamide] | did not block autophagic flux | reversed | 
1.3 fold | 1.5 fold | O=C(Nc1cc(C(F)(F)F)cc(C(F)(F)F)c1)N[C@@H](C(=O)Nc1ccc(F)cc1F)c1ccc(OCc2cn(CCCCCCNC(=O)C(=O)c3c(-c4ccccc4)[nH]c4ccccc34)nn2)cc1 [NZ-66, (R)-2-(3-(3,5-bis(trifluoromethyl)phenyl)ureido)-N-(2,4-difluorophenyl)-2-(4-((1-(6-(2-oxo-2-(2-phenyl-1H-indol-3-yl)acetamido)hexyl)-1H-1,2,3-triazol-4-yl)methoxy)phenyl) acetamide] | did not block autophagic flux | reversed | 
 |  | O=C(Nc1ccc(F)cc1F)[C@H](NC(=S)Nc1cc(C(F)(F)F)cc(C(F)(F)F)c1)c1ccccc1 [BL-918, reference compound] |  |  | mild increase in autophagosome number
